Test results as given in patent US9273038B2, “Solid forms of an ion channel modulator” (Gilead Sciences, Inc., priority 2014, dated 2016).
In brackets after ≈: the same amount, converted by molar mass. Read-outs that look alike come from different tables or passages of the source.

What was measured:
[1] = Stable form screen: solubility in single and binary solvents (HPLC, external standard); format: physicochemical
Protocol: In order to determine whether other polymorphs of Compound I exist, a stable form screen was conducted. […] As a result, slurries were typically produced in non-polar solvents. Table 1). Slurries were also generated in solvent combinations with n-heptane (Table 2) and cyclohexane (Table 3). In cases where a slurry was formed, Form I was isolated after agitation for 1 day and 3 weeks.

[2] = Hydrate screen in ethanol/water and isopropanol/water: solubility and relative form stability; format: physicochemical; details: for Solubility: 5 days, started from Form I
Protocol: A hydrate screen starting from Form I was also conducted to evaluate whether hydrates of Compound I exist. The hydrate screen was conducted in ethanol/water (Table 6) and isopropanol/water (Table 7) mixtures, and in both cases, a new polymorph of Compound I was discovered (denoted as Form III).
From the initial hydrate screens presented in Table 6 and Table 7 no apparent trends were observed. In this case, all slurries of Form I in EtOH/water or IPA/water mixtures remained unchanged after 2 weeks (Table 8 and Table 9). Since Form III has been observed previously under the same conditions, it was suspected that the lack of form conversion is mainly due to slow kinetics. […] Attempts to determine the relative stability between Forms I and III at lower water activities were unsuccessful since Form I either was too soluble or oiled out at water activities of 0.8 or below.

pKa = format: physicochemical
[3] = system: late sodium current (INaL); details: as described in WO 2013/006485; cited from earlier work
[4] = Extended stable form screen starting from Form II: solubility of filtrate by TGA; format: physicochemical; details: suspension of the solid in solvent, filtrate analysed, 21 °C, organic solvent or mixture, thermodynamic from solid, about 21° C.
Protocol: These experiments were performed at about 21° C. starting from Form II. After about 3 to 6 days in suspension two experiments produced full conversion from Form II to Form I; one became biphasic; and the rest remained Form II (FIG. 43). Three of the filtrates obtained from isolating the solid phase from samples became biphasic before the solubility could be measured by TGA.
After about 8 to 11 days in suspension the distribution of forms remained unchanged (FIG. 44). All of the filtrates except one became biphasic before solubility could be measured by TGA.

[5] = Determination of transition temperature between Forms I and II (slurries at 35 and 38° C., pXRD); format: physicochemical; details: slurries with and without Form II seeds, iPrOAc/n-heptane
Protocol: […] describes the set of experiments which concluded that Form I and II are enantiotropic forms and determined the transition temperature. Slurries of Form I with and without Form II seeds were stirred at 35° C. and 38° C. and samples were removed periodically for pXRD analysis. For slurries of Form I aged at 35° C., Form I dominated regardless of whether Form II seeds were present (albeit when Form II seeds were present, the full conversion to Form I took about 5 days) (Table 4). In contrast, slurries of Form I at 38° C. in the presence of Form II seeds rapidly turned over to Form II within 1 day and remained Form II even after the slurry was cooled to 20° C. for isolation. When no Form II seeds were present, Form I slurries remained unchanged even when aged at 38° C.

[6] = Dynamic vapor sorption (DVS) analysis; format: physicochemical; details: for Relative humidity of deliquescence (DVS): mono sulfate
Protocol: The solids with unique XRPD patterns were characterized by DSC, TGA, ^1H NMR, KF and DVS. All XRPD patterns were obtained in the experimental setting as follows: 45 kV, 40 mA, Kα1=1.5406 Å, scan range 2 to 40°, step size 0.0167°, counting time: 15.24 s. DSC and TGA analyses were performed using 10° C./min heating rate over the 20 to 350° C. temperature range.

[7] = Dissolution test of Compound I Form VII in DI water; format: physicochemical; details: about 8 mg in 0.5 mL DI water; stirred overnight at room temperature; solid found: free base Form I
Protocol: A dissolution test of Compound I Form VII (about 8 mg) and 0.5 mL of DI water was performed. The solids were almost completely dissolved at first, and then more solids precipitated out. The slurry was allowed to be stirred overnight at room temperature before XRPD and ^1H NMR analyses, which confirm Compound I free base (Form I).

[8] = Relative stability of Compound I Forms XIV and XV (seeding, heating at about 130° C., XRPD); format: physicochemical; details: seeding experiments; Form XV heated at about 130° C. for about 10 minutes gave Form XIV
Protocol: In another experiment, Compound I FORM XV was heated at about 130° C. for about 10 minutes and cooled to about 21° C. prior to XRPD analysis.

[9] = Stable hydrate screen in methanol/water: solubility by TGA; format: physicochemical
Protocol: Since the hydrate screens from aqueous mixtures of ethanol and isopropyl alcohol were performed in a fairly narrow range of water activity (Aw≧0.8), it was desirable to determine the outcome over a wider range of water activities. An attempt was made to explore this using a system of methanol and water (Table 10). Form I was used as the starting material. […] At and above this Aw only Form I was found.

## O=C1c2cc(-c3ccc(OC(F)(F)F)cc3)ccc2OCCN1Cc1ncccn1 [Compound I, 4-(pyrimidin-2-ylmethyl)-7-(4-(trifluoromethoxy)phenyl)-3,4-dihydrobenzo[f][1,4]oxazepin-5(2H)-one]
[1]; 2-MeTHF/n-heptane (1:5) v/v, slurry, solid Form I
  Solubility (mg/g) (3 weeks): 6.7 mg/g
[1]; Cyclohexane, slurry, solid Form I
  Solubility (mg/g) (3 weeks): 2.4 mg/g
[1]; EtOAc/cyclohexane (1:3) v/v, 1 day, slurry, solid Form I
  Solubility (mg/g) (1 day): 86 mg/g
[1]; IPA/n-heptane (1:4) v/v, slurry, solid Form I
  Solubility (mg/g) (3 weeks): 20.0 mg/g
[1]; IPA, homogenous
  Solubility (mg/g) (3 weeks): >300 mg/g
[1]; IPE, slurry, solid Form I
  Solubility (mg/g) (3 weeks): 21.5 mg/g
[1]; MTBE/n-heptane (1:2) v/v, slurry, solid Form I
  Solubility (mg/g) (3 weeks): 5.4 mg/g
[1]; MTBE, homogenous
  Solubility (mg/g) (3 weeks): >240 mg/g
[1]; MeCN, homogenous
  Solubility (mg/g) (3 weeks): >350 mg/g
[1]; Toluene/n-heptane (1:3) v/v, slurry, solid Form I
  Solubility (mg/g) (3 weeks): 7.1 mg/g
[1]; Toluene, homogenous
  Solubility (mg/g) (3 weeks): >500 mg/g
[1]; Water, slurry, solid Form I
  Solubility (mg/g) (3 weeks): 0 mg/g
[1]; iPrOAc/n-heptane (1:3) v/v, slurry, solid Form I
  Solubility (mg/g) (3 weeks): 18.9 mg/g
[1]; many organic solvents
  Solubility in organic solvents (in words): highly soluble
[1]; n-Heptane, slurry, solid Form I
  Solubility (mg/g) (3 weeks): 0.9 mg/g
[1]; t-amyl alcohol/n-heptane (1:3) v/v, slurry, solid Form I
  Solubility (mg/g) (3 weeks): 17.5 mg/g
[2]; 10% EtOH in water (volume), water activity >0.9, solid found Form I
  Solubility: 0 mg/g
[2]; 10% IPA in water (volume), water activity >0.9, solid found Form III
  Solubility: 0 mg/g
[2]; 20% EtOH in water (volume), water activity 0.8-0.9, solid found Form III
  Solubility: 0.05 mg/g
[2]; 20% IPA in water (volume), water activity >0.9, solid found Form I
  Solubility: 0 mg/g
[2]; 25% IPA in water (volume), water activity >0.9, solid found Form III
  Solubility: 0.5 mg/g
[2]; 30% EtOH in water (volume), water activity 0.8-0.9, solid found Form I
  Solubility: 0.6 mg/g
pKa
  pKa: < 2
[3]
  Late sodium current inhibition (in words): selective late sodium current inhibitor

## O=C1c2cc(-c3ccc(OC(F)(F)F)cc3)ccc2OCCN1Cc1ncccn1 [Compound I Form II, 4-(pyrimidin-2-ylmethyl)-7-(4-(trifluoromethoxy)phenyl)-3,4-dihydrobenzo[f][1,4]oxazepin-5(2H)-one]
[4]; Ethanol/n-heptane (1/4) v/v, 4-6 days, read-out: 4-6 Days Solubility
  Solubility: 32 mg/mL (≈ 77 mM)
[4]; MIBK/n-heptane (1/4) v/v, 4-6 days, read-out: 4-6 Days Solubility
  Solubility: 26 mg/mL (≈ 62.6 mM)
[4]; MIBK/n-heptane (1/4) v/v, 8-11 days, read-out: 8-11 Day Solubility
  Solubility: 35 mg/mL (≈ 84.3 mM)
[4]; THF/n-heptane (1/4) v/v, 4-6 days, read-out: 4-6 Days Solubility
  Solubility: 29 mg/mL (≈ 69.8 mM)
[5]; listed as Form II
  Relative stability of Forms I and II (in words): the more stable form at or above 38 °C

## Cc1ccc(S(=O)(=O)O)cc1.O=C1c2cc(-c3ccc(OC(F)(F)F)cc3)ccc2OCCN1Cc1ncccn1 [Compound I Form VII, 4-(pyrimidin-2-ylmethyl)-7-(4-(trifluoromethoxy)phenyl)-3,4-dihydrobenzo[f][1,4]oxazepin-5(2H)-one p-toluenesulfonic acid]
[6]
  Hygroscopicity by DVS (in words): moderately hygroscopic
[6]; 90% RH
  Moisture uptake at 90% RH (DVS): about 2.75 wt %
  Water adsorbed at 90% RH (DVS): about 0.9 molar equivalents
[6]; 90% RH, listed as Form VII
  Moisture uptake at 90% RH (DVS): 2.75 wt % at
[6]; listed as Form VII
  Hygroscopicity by DVS (in words): Moderately
[7]
  Stability in water (in words): unstable in water and dissociates in it

## O=C1c2cc(-c3ccc(OC(F)(F)F)cc3)ccc2OCCN1Cc1ncccn1.O=S(=O)(O)O [Compound I Form XIV, 4-(pyrimidin-2-ylmethyl)-7-(4-(trifluoromethoxy)phenyl)-3,4-dihydrobenzo[f][1,4]oxazepin-5(2H)-one mono sulfate]
[6]; listed as Compound I FORM XIV
  Relative humidity of deliquescence (DVS): around 70 % RH
[6]
  Relative humidity of deliquescence (DVS): about 70 % RH
[8]
  Relative stability of Forms XIV and XV (in words): the more stable phase in comparison with Compound I FORM XV

## O=C1c2cc(-c3ccc(OC(F)(F)F)cc3)ccc2OCCN1Cc1ncccn1 [Compound I Form I, 4-(pyrimidin-2-ylmethyl)-7-(4-(trifluoromethoxy)phenyl)-3,4-dihydrobenzo[f][1,4]oxazepin-5(2H)-one]
[2]; 10% EtOH/water, water activity >0.9
  Form I Solubility mg/g (2 weeks): 0.09 mg/g
[2]; 10% IPA/water, water activity >0.9
  Form I Solubility mg/g (2 weeks): 0.10 mg/g
[2]; 20% EtOH/water, water activity 0.8-0.9
  Form I Solubility mg/g (2 weeks): 0.10 mg/g
[2]; 20% IPA/water, water activity >0.9
  Form I Solubility mg/g (2 weeks): 0.18 mg/g
[2]; 25% IPA/water, water activity >0.9
  Form I Solubility mg/g (2 weeks): 0.65 mg/g
[2]; 30% EtOH/water, water activity 0.8-0.9
  Form I Solubility mg/g (2 weeks): 0.49 mg/g
[2]; 30% IPA/water, water activity >0.9
  Form I Solubility mg/g (2 weeks): 4.7 mg/g
[2]; 35% EtOH/water, water activity 0.8-0.9
  Form I Solubility mg/g (2 weeks): 1.3 mg/g
[9]; Aw 0.6, 3 days
  3 days TGA: 14 mg/mL
[9]; Aw 0.7, 3 days
  3 days TGA: 4.5 mg/mL
[9]; Aw 0.7, 14 days
  14 days TGA: 2 mg/mL
[9]; Aw 0.8, 3 days
  3 days TGA: 1.4 mg/mL
[9]; Aw 0.8, 14 days
  14 days TGA: 1 mg/mL
[9]; Aw 0.9, 3 days
  3 days TGA: 0.5 mg/mL
[9]; Aw 0.9, 14 days
  14 days TGA: <1 mg/mL
[9]; Aw below 0.6, only solutions present
  Solubility (in words): extraordinarily high
[5]; listed as Form I
  Relative stability of Forms I and II (in words): the more stable form at below 35 °C
